The results in this text go back to ChEMBL document CHEMBL1909046, “DrugMatrix in vitro pharmacology data”.

pIC50, pKi: −log10 of the molar value.

A short description of test [1]: DRUGMATRIX: Calcium Channel Type L, Benzothiazepine radioligand binding (ligand: [3H] Diltiazem). It is filed as cell membranes, Rattus norvegicus, Wistar, Brain, Membrane. The note with it: Not Active = under 50% inhibition at 10 µM; for pIC50: read-out: IC50; for pKi: read-out: Ki.
The target of test [2] is T1, Amine oxidase [flavin-containing] A (Homo sapiens, UniProt P21397).
T1 sequence (P21397 whole entry): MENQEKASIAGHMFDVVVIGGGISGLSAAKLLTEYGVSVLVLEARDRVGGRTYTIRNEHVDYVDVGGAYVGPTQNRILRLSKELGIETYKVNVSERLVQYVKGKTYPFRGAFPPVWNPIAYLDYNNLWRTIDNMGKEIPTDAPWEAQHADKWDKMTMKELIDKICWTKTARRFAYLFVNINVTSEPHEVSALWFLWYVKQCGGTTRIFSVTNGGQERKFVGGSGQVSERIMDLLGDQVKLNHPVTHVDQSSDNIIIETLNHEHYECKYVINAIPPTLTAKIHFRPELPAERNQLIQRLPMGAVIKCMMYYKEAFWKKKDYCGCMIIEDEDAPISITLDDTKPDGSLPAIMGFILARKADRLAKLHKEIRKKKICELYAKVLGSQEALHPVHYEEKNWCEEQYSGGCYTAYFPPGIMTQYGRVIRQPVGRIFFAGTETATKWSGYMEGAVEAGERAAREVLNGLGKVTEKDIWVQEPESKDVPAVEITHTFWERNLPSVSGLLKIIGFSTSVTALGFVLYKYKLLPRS
Kind of test: DRUGMATRIX: Monoamine Oxidase MAO-A enzyme inhibition (substrate: Kynuramine). Also on record: species or system BTI-TN-5B1-4. The note with it: bti-tn-5b1-4; Not Active = under 50% inhibition at 10 µM.

For the next test, the target named is T2, Thromboxane-A synthase (Homo sapiens, UniProt P24557).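 Also: enzyme inhibition assay with PGH2 supplied as substrate; in other assays of this panel Not Active means under 50% inhibition at 10 µM.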
T2 sequence (P24557 whole entry): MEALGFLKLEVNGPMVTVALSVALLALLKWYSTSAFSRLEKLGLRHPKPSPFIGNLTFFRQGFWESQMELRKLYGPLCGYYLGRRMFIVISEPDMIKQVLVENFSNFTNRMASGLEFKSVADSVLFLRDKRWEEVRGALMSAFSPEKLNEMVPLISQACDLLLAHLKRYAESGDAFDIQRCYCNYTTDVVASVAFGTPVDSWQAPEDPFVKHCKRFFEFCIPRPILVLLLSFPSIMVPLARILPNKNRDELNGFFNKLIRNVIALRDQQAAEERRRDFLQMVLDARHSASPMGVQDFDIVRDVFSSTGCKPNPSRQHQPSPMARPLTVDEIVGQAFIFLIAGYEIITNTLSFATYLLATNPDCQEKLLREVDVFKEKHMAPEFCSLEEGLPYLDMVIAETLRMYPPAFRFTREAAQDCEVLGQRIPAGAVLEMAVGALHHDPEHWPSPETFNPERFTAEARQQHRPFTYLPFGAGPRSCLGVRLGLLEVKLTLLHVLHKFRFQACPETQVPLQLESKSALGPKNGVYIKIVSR
The test can be described thus: biochemical. It is filed as tissue-based, Platelet. The note with it: for IC50: platelet.

The target in test [3] is Mitogen-activated protein kinase 1 (Homo sapiens, UniProt P28482). The test can be described thus: DRUGMATRIX: Protein Serine/Threonine Kinase, ERK2 enzyme inhibition (substrate: Myelin Basic Protein). Also on record: species or system Escherichia coli. The note with it: Not Active = under 50% inhibition at 10 µM.
Test [4] has as its target Aldo-keto reductase family 1 member B1 (Rattus norvegicus, UniProt P07943). Kind of test: biochemical. It is filed as tissue-based, Lens of camera-type eye.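 Also: inhibition of aldose reductase enzyme activity, measured with DL-glyceraldehyde as the substrate; in other assays of this panel Not Active means under 50% inhibition at 10 µM.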
In another test the target is T3, D(4) dopamine receptor (Homo sapiens, UniProt P21917).
T3 sequence (P21917 whole entry): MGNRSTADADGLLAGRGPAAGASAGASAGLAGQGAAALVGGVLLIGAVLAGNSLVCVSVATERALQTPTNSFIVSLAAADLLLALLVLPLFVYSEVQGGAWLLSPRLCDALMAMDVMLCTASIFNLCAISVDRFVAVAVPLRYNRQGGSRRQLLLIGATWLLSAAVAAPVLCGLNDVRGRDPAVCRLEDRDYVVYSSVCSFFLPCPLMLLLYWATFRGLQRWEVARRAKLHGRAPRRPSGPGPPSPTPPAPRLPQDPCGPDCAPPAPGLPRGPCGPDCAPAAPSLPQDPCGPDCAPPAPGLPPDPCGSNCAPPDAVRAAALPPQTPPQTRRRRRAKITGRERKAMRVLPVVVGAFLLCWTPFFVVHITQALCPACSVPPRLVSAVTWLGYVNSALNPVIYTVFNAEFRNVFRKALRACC
Kind of test: DRUGMATRIX: Dopamine D4.2 radioligand binding (ligand: [3H] Spiperone). It is filed as cell membranes, CHO-K1, Membrane. To be noted: Not Active = under 50% inhibition at 10 µM; for IC50: cho-k1.

Chain of Mitogen-activated protein kinase 1 (P28482 whole entry): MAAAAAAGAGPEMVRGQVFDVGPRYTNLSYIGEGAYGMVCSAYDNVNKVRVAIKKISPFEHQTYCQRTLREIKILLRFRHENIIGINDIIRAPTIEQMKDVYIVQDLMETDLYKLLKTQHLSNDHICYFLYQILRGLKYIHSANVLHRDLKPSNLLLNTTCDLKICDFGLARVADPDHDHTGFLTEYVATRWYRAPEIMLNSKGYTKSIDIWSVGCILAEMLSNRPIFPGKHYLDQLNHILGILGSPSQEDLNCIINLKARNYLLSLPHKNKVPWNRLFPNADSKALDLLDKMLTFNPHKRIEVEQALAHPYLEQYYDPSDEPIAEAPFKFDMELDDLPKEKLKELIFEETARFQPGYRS

Regarding `Cc1cnc(NC(=O)C2=C(O)c3ccccc3S(=O)(=O)N2C)s1` [MELOXICAM], the IC50 entry (in test [1]; in test [2]; against Thromboxane-A synthase; in test [3]; in test [4]; at D(4) dopamine receptor) was “Not Active” throughout. In test [1], the Ki result was “Not Active”.

In the case of `Nc1nc(N)c2nc(-c3ccccc3)c(N)nc2n1`, the IC50 entry (in test [1]; in test [2]; at Thromboxane-A synthase; in test [3]; in test [4]; on D(4) dopamine receptor) was “Not Active” each time. Moreover, the Ki result in test [1] is on record as “Not Active”.

`CC(C)(C)NC[C@H](O)COc1cccc2c1CCCC2=O` [LEVOBUNOLOL]: the IC50 result (in test [1]; in test [2]; against Thromboxane-A synthase; in test [3]; in test [4]; at D(4) dopamine receptor) was “Not Active” throughout. In addition, in test [1], the Ki result is on record as “Not Active”.

In the case of `Cc1[nH]c(=O)c(C#N)cc1-c1ccncc1` [MILRINONE], the IC50 result (in test [1]; in test [2]; on Thromboxane-A synthase; in test [3]; in test [4]; on D(4) dopamine receptor) was “Not Active” each time. In test [1], the Ki result was “Not Active”.

Regarding `Cc1cn([C@H]2C=C[C@@H](CO)O2)c(=O)[nH]c1=O` [STAVUDINE], the IC50 entry (in test [1]; in test [2]; on Thromboxane-A synthase; in test [3]; in test [4]; at D(4) dopamine receptor) was “Not Active” in each case. In addition, in test [1], the Ki result was “Not Active”.

Take `CCOc1cc(N)c(Cl)cc1C(=O)NCC1CN(Cc2ccc(F)cc2)CCO1` (configuration not stated) [MOSAPRIDE]: the IC50 entry (in test [1]; in test [2]; on Thromboxane-A synthase; in test [3]; in test [4]; at D(4) dopamine receptor) was “Not Active” each time. For the same compound, in test [1], the Ki result is “Not Active”.

For the compound `C#C[C@]1(O)CC[C@H]2[C@@H]3[C@H](C)CC4=C(CCC(=O)C4)[C@H]3CC[C@@]21C` [TIBOLONE], the IC50 result (in test [1]; in test [2]; on Thromboxane-A synthase; in test [3]; in test [4]; at D(4) dopamine receptor) was “Not Active” each time. The Ki entry in test [1] was “Not Active”.

For orientation: pIC50 means the IC50 on a negative log10 scale, so that one unit is a factor of ten. Broadly, the pKi is the Ki on a negative log10 scale, so that one unit is a factor of ten. As for `CC[C@H](C)[C@@H](CO[C@@H](Cc1ccccc1)C(=O)N[C@@H](CCS(C)(=O)=O)C(=O)OC(C)C)NC[C@@H](N)CS`, the pIC50 in test [1] is 5.45. Moreover, in test [1], the pKi was 5.50. The IC50 result (in test [2]; against Thromboxane-A synthase; in test [3]; in test [4]; at D(4) dopamine receptor) was “Not Active” in each case.

On to `OC[C@@H](O)[C@@H](O)[C@H](O)[C@H](O)CO` [MANNITOL], for which the IC50 result (in test [1]; in test [2]; on Thromboxane-A synthase; in test [3]; in test [4]; on D(4) dopamine receptor) was “Not Active” throughout. In addition, the Ki entry in test [1] is given as “Not Active”.

With `O=[As][O-].[Na+]` [SODIUM ARSENITE], the IC50 result (in test [1]; in test [2]; against Thromboxane-A synthase; in test [3]; in test [4]; at D(4) dopamine receptor) was “Not Active” throughout. Besides, in test [1], the Ki entry is “Not Active”.

For `Cc1cc2c(s1)Nc1ccccc1N=C2N1CCN(C)CC1` [OLANZAPINE], the IC50 result (in test [2]; on Thromboxane-A synthase; in test [3]; in test [4]; on D(4) dopamine receptor) was “Not Active” each time.

On to `Cc1ccc(Cl)c(Nc2ccccc2C(=O)O)c1Cl` [MECLOFENAMIC ACID], for which the IC50 result (in test [1]; in test [2]; at Thromboxane-A synthase; in test [4]; on D(4) dopamine receptor) was “Not Active” each time. For the same compound, the Ki result in test [1] is “Not Active”. For the same compound, the pIC50 in test [3] (read-out: IC50) is 5.50.

Turning to `CCOC(=O)C1=C(C)NC(C)=C(C(=O)OCC)C1c1ccccc1/C=C/C(=O)OC(C)(C)C` [LACIDIPINE], the pIC50 in test [1] is 8.26; on Thromboxane-A synthase (read-out: IC50), 5.77. Further, in test [1], the negative logarithm of the Ki (pKi) was 8.31. In addition, the IC50 result (in test [2]; in test [3]; in test [4]; at D(4) dopamine receptor) was “Not Active” throughout.

As for `CNCCCC12CCC(c3ccccc31)c1ccccc12` [MAPROTILINE], the IC50 result (in test [2]; against Thromboxane-A synthase; in test [3]; in test [4]; at D(4) dopamine receptor) was “Not Active” each time.

Regarding `O=C(c1ccccc1)c1ccc2n1CCC2C(=O)O` (configuration not stated) [KETOROLAC], the IC50 entry (in test [1]; in test [2]; at Thromboxane-A synthase; in test [3]; on D(4) dopamine receptor) was “Not Active” each time. Moreover, the Ki entry in test [1] was “Not Active”. The pIC50 in test [4] (read-out: IC50) was 5.21.

As for `CCN(CC)N=O` [N-NITROSODIETHYLAMINE], the IC50 entry (in test [1]; in test [2]; at Thromboxane-A synthase; in test [3]; in test [4]; at D(4) dopamine receptor) was “Not Active” each time. In test [1], the Ki result is reported as “Not Active”.

Turning to `CO[C@@]12[C@H](COC(N)=O)C3=C(C(=O)C(C)=C(N)C3=O)N1C[C@@H]1N[C@@H]12` [MITOMYCIN], the IC50 entry (in test [1]; in test [2]; against Thromboxane-A synthase; in test [3]; in test [4]; on D(4) dopamine receptor) was “Not Active” each time. For the same compound, in test [1], the Ki entry was “Not Active”.

With `Cc1ccc(S(=O)(=O)NC(=O)NN2CCCCCC2)cc1` [TOLAZAMIDE], the IC50 result (in test [1]; in test [2]; against Thromboxane-A synthase; in test [3]; in test [4]; on D(4) dopamine receptor) was “Not Active” throughout. For the same compound, the Ki entry in test [1] is on record as “Not Active”.

For `CCC(C)(C)C(=O)O[C@H]1C[C@@H](C)C=C2C=C[C@H](C)[C@H](CC[C@@H]3C[C@@H](O)CC(=O)O3)[C@H]21` [SIMVASTATIN], the IC50 result (in test [1]; in test [2]; at Thromboxane-A synthase; in test [3]; in test [4]; at D(4) dopamine receptor) was “Not Active” throughout. Further, the Ki result in test [1] is “Not Active”.

In the case of `Oc1ccc(/C=C/c2cc(O)cc(O)c2)cc1` [RESVERATROL], the IC50 entry (in test [1]; against Thromboxane-A synthase; in test [3]; in test [4]; at D(4) dopamine receptor) was “Not Active” each time. For the same compound, the Ki result in test [1] was “Not Active”.

As for `CN(C)CCC=C1c2ccccc2COc2ccccc21` [DOXEPIN], the IC50 result (in test [2]; against Thromboxane-A synthase; in test [3]; in test [4]; at D(4) dopamine receptor) was “Not Active” throughout.

`CCN(CC)C(=S)SSC(=S)N(CC)CC`: the IC50 result (in test [1]; at Thromboxane-A synthase; in test [3]; in test [4]) was “Not Active” each time. The Ki entry in test [1] was “Not Active”. In addition, at D(4) dopamine receptor (read-out: IC50), the pIC50 is 5.50. In addition, on D(4) dopamine receptor (read-out: Ki), the pKi is 5.96.
